Values of other authors, collected in EP0435915B1, “COMPOSITIONS FOR THE TREATMENT OF LEISHMANIASIS” (priority 1988, dated 1990).

Test system: leishmaniasis lesions
Settings: reported by GB-A-2117237; result in words

NC[C@@H]1O[C@H](O[C@H]2[C@@H](O)[C@H](O[C@@H]3[C@@H](O)[C@H](N)C[C@H](N)[C@H]3O[C@H]3O[C@H](CO)[C@@H](O)[C@H](O)[C@H]3N)O[C@@H]2CO)[C@H](N)[C@@H](O)[C@@H]1O [paromomycin, 0-2,6-diamino-2,6-dideoxy-β-L-idopyranosyl-(1→3)-0-β-D-ribofuranosyl-(1→5)-0-[2-amino-2-deoxy-α-D-glucopyranosyl-(1→4)]-2-deoxystreptamine]
effect when applied topically to leishmaniasis lesions: ineffective
